Assay: Acid neutralizing capacity of buffers: buffer added to basal SGF and titrated with excess 0.1N HCl for 1 hour
Assay type: physicochemical
Details: for initial rise in pH: at the buffer quantity required to neutralize the SGF (quantity stated per buffer); for pH upon addition of excess acid for a period of 1 h: at the buffer quantity required to neutralize the SGF, 0.1N HCl at 0.5 ml/minute; for quantity of buffer required to neutralize the basal SGF: basal SGF: 9.6 ml of 0.1N HCl + 210 ml of water
Protocol: A number of buffers, both soluble and insoluble, were tested for their acid neutralizing capacity. Based on their acid neutralizing capacity, buffers, both individual and combination, were evaluated for their behavior at the excess secretion of acid. The technique involved consists of adding an excess dose of the buffer to a sample of artificial gastric juice. […] The model was simulated in vitro and the buffer was added to the basal SGF medium containing 9.6 ml of 0.1N HCl+210 ml of water and titrated with excess acid (0.1N HCl) at the rate of 0.5 ml/minute for a period of 1 hour (total volume=250 ml). The buffer(s) which maintained a pH above 6.0 at the excess secretion of acid was selected.

| SMILES | initial rise in pH | pH upon addition of excess acid for a period of 1 h | quantity of buffer required to neutralize the basal SGF |
| --- | --- | --- | --- |
| [Mg+2].[O-2] [Heavy Magnesium oxide] | 7 | 7 | About 80 mg |
| NC(CO)(CO)CO [Tromethamine] | 8 | 8 | About 1000 mg |

From patent US8999384B2, “Immediate release compositions of acid labile drugs” (priority 2010, dated 2015)
